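Protocol summary: plate cells (96-well), add compound at 5 concentrations, incubate 48 h, interpolate endpoints linearly. GI50 marks 50% less growth. At the TGI there is no net growth.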
Tests used:
Test in all cases: NCI tumour cell line growth inhibition, 48 h
UO-31 renal = system: UO-31 renal
MALME-3M melanoma = system: MALME-3M melanoma
OVCAR-4 ovarian = system: OVCAR-4 ovarian
SF-268 CNS = system: SF-268 CNS
HT29 colon = system: HT29 colon
SK-MEL-28 melanoma = system: SK-MEL-28 melanoma
SN12C renal = system: SN12C renal
SF-539 CNS = system: SF-539 CNS
IGROV1 ovarian = system: IGROV1 ovarian
PC-3 prostate = system: PC-3 prostate

Compound	TGI (UO-31 renal)	TGI (MALME-3M melanoma)	TGI (OVCAR-4 ovarian)	TGI (SF-268 CNS)	TGI (HT29 colon)	TGI (SK-MEL-28 melanoma)	TGI (SN12C renal)	TGI (SF-539 CNS)	TGI (IGROV1 ovarian)	GI50 (UO-31 renal)	GI50 (OVCAR-4 ovarian)	GI50 (SF-268 CNS)	GI50 (HT29 colon)	GI50 (PC-3 prostate)	TGI (PC-3 prostate)	GI50 (SK-MEL-28 melanoma)	GI50 (SN12C renal)	GI50 (SF-539 CNS)	GI50 (IGROV1 ovarian)	GI50 (MALME-3M melanoma)
COC(=O)C1=C(c2cc(OC)c(OC)c(OC)c2)OC(c2cc(OC)c(OC)c(OC)c2)C1COC(C)=O (configuration not stated)	> 100 µM	> 100 µM	> 100 µM	> 100 µM	> 100 µM	> 100 µM	> 100 µM	> 100 µM	> 100 µM											
CCOC(=O)c1c(C)n(CC(C)C)c2c1cc1oc(=O)c(=O)n3cnc2c13	> 50 µM		> 50 µM	> 50 µM	> 50 µM	> 50 µM	22.9 µM	42 µM	> 50 µM	20.7 µM	17.4 µM	18 µM	17.2 µM	24.6 µM	> 50 µM	23.6 µM	10.7 µM	15.6 µM	15.1 µM	
COc1ccc(/C=C/c2nc(=S)[nH][nH]2)cc1	> 100 µM	> 100 µM	> 100 µM	> 100 µM	> 100 µM	> 100 µM	> 100 µM	> 100 µM	> 100 µM											
COc1cc(OC)c(OC)cc1/C=C1\C=Cc2ccccc21	64.2 µM	56.8 µM		> 100 µM	> 100 µM	47.6 µM	36.7 µM	35.8 µM	> 100 µM						> 100 µM					
O=C(CCC(=O)N/N=C/c1ccccc1O)N/N=C/c1ccccc1O	> 100 µM	> 100 µM	> 100 µM	52.4 µM	> 100 µM	> 100 µM	> 100 µM		> 100 µM											
CCc1ccc(/C(C)=N/NC(N)=S)cc1	> 100 µM	> 100 µM	> 100 µM	> 100 µM	> 100 µM	> 100 µM		> 100 µM	> 100 µM											
NC1=NC2(O)c3ccccc3C(=O)C2(O)N1 (configuration not stated)		> 100 µM	> 100 µM	> 100 µM	> 100 µM	> 100 µM	> 100 µM	> 100 µM	> 100 µM											
COC1(OC)CC2C(=O)N(Cc3ccccc3)C1CC2S(=O)(=O)c1ccccc1 (configuration not stated)	> 100 µM	> 100 µM			> 100 µM	> 100 µM	> 100 µM	> 100 µM	> 100 µM											
COc1ccc(/C(Cl)=C(\C=O)c2ccc(Br)cc2)cc1OC	> 100 µM	> 100 µM	> 100 µM	> 100 µM	> 100 µM	> 100 µM	> 100 µM	67.1 µM	> 100 µM											
Cc1ccc(S(=O)(=O)NC(CCC(=O)Nc2ccccc2)C(=O)Nc2ccccc2)cc1 (configuration not stated)	3.39 µM	2.51 µM						0.89 µM		0.274 µM								0.283 µM		0.745 µM
Fc1ccc(F)c(C2SCc3nc4ccccc4n32)c1 (configuration not stated)	> 100 µM	> 100 µM	> 100 µM	> 100 µM	> 100 µM		> 100 µM	> 100 µM	> 100 µM											
Cc1c(C2Cc3ccccc3N2C(=O)/C=C\C(=O)O)c2ccccc2n1C (configuration not stated)	> 100 µM	> 100 µM	> 100 µM	35.9 µM	> 100 µM		45.6 µM	42.6 µM	70.7 µM											

From PubChem BioAssay (NCI)
